Series [1] is described as follows: acute toxicity, single oral administration to rats. As to conditions: rat, in vivo, p.o. The text has this:
(§1) The following Table contains results obtained with the aforementioned particularly preferred compounds inhibiting the intestinal resorption of cholesterol. For each of these compounds there are given the dose(s) administered (in μMol/kg p.o) as well as the cholesterol recovery (CHOREC), expressed in % of controls. Moreover, the Table contains data relating to the acute toxicity of the compounds investigated (LD 50 in mg/kg in the case of a single oral administration to rats): […]

Series [2] has as its system intestinal resorption of cholesterol. Nature of the series: inhibition of the intestinal resorption of cholesterol (cholesterol recovery, CHOREC). In kind it is in vivo, normal female Fullinsdorf albino rats. As to conditions: rats. As to the method:
The compounds to be tested are administered to groups of 6 normal female Fullinsdorf albino rats (body weight about 70 g) by oral intubation. This is followed immediately by oral intubation of a test meal containing radioactive cholesterol. Consecutively, feces are collected for three days, freeze dried and pulverized. An aliquot is burned for evaluation of fecal radioactivity. Controls excrete about 40-50% of the dietary radioactive cholesterol called cholesterol recovery (CHOREC) and arbitrarily set 100%. Animals treated with a substance inhibiting the intestinal resorption of cholesterol show a higher excretion of radioactive cholesterol in comparison with controls. The cholesterol recovery (CHOREC) of treated animals is expressed in % of controls.
as §1

This is an account of results in US4299767A, “Benzodiazepine derivatives” (Hoffmann-La Roche Inc., priority 1978, dated 1981).

Each structure is given as a SMILES string.

With `CC1N=C(c2ccccc2F)c2c(ccc(NC(=O)NCCO)c2Br)N(C)C1=O` (racemic) [Example 50, rac-1-[6-bromo-5-(o-fluorophenyl)-2,3-dihydro-1,3-dimethyl-2-oxo-1H-1,4-benzodiazepin-7-yl]-3-(2-hydroxyethyl)urea], the LD50 (as a rule, the dose expected to kill half of the subjects tested) in series [1] is greater than 5000 mg/kg. Moreover, the “cholesterol recovery (CHOREC), in % of controls” value turned out to be 132% in series [2] (10 μMol/kg p.o.); 160% in series [2] (30 μMol/kg p.o.); 155% in series [2] (100 μMol/kg p.o.); 169% in series [2] (300 μMol/kg p.o.); 189% in series [2] (1000 μMol/kg p.o.).

On to `CC1N=C(c2ccccc2Cl)c2c(ccc(NC(=O)NCCO)c2Br)N(C)C1=O` (racemic) [Example 48, rac-1-[6-bromo-5-(o-chlorophenyl)-2,3-dihydro-1,3-dimethyl-2-oxo-2H-1,4-benzodiazepin-7-yl]-3-(2-hydroxyethyl)urea], for which the LD50 in series [1] is greater than 5000 mg/kg. The “cholesterol recovery (CHOREC), in % of controls” value was determined as 150% in series [2] (10 μMol/kg p.o.), 157% in series [2] (30 μMol/kg p.o.), 168% in series [2] (100 μMol/kg p.o.) and 187% in series [2] (1000 μMol/kg p.o.).

On to `CN1C(=O)CN=C(c2ccccc2F)c2c1ccc(NC(=O)N1CCOCC1)c2Cl` [Example 51, N-[6-chloro-5-(o-fluorophenyl)-2,3-dihydro-1-methyl-2-oxo-1H-1,4-benzodiazepin-7-yl]-4-morpholinecarboxamide], for which the LD50 in series [1] lay in the range of 1250 to 2500 mg/kg. In series [2] (1000 μMol/kg p.o.), the “cholesterol recovery (CHOREC), in % of controls” value stood at 186%.

For the compound `CC1N=C(c2ccccc2Cl)c2c(ccc(NC(=O)NCCO)c2Cl)N(C)C1=O` (racemic) [Example 49, rac-1-[6-chloro-5-(o-chlorophenyl)-2,3-dihydro-1,3-dimethyl-2-oxo-1H-1,4-benzodiazepin-7-yl]-3-(2-hydroxyethyl)urea], the 50% lethal dose (LD50) in series [1] was greater than 5000 mg/kg. Moreover, the “cholesterol recovery (CHOREC), in % of controls” value in series [2] (1000 μMol/kg p.o.) came out at 188%.
